Data reported in patent US7884123B2, “Substituted thieno[2,3-c]pyrazoles, process for preparing them, compositions containing them, and use thereof” (Aventis Pharma S.A., priority 2004, dated 2011).
Where a name gives a salt, the structure may show the parent alone.

Tests used:
Aurora2 = molecular target: T1, Aurora2 (Homo sapiens, UniProt O14965); assay: Aurora2 kinase radioactivity scintillation test using nickel chelate; format: biochemical
T1 construct: A complete recombinant Aurora2 enzyme, the N-terminal of which was labeled with histidine, was expressed in E. coli; His tag (N); made in house; host or cells: E. coli
T1 sequence (O14965 1-403): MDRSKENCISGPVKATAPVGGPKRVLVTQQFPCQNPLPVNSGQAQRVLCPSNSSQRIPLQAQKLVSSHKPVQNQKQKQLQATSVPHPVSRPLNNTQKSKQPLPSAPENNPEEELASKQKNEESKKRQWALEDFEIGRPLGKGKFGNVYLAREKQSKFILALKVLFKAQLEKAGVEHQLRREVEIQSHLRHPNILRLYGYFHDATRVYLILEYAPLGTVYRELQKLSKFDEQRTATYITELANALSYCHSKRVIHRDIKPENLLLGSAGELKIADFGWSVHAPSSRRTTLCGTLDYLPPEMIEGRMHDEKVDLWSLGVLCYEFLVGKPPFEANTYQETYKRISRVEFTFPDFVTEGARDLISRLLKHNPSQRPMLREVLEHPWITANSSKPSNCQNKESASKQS
Method: The inhibitory effect of the compounds toward the kinase Aurora2 is determined via a radioactivity scintillation test using nickel chelate.
A complete recombinant Aurora2 enzyme, the N-terminal of which was labeled with histidine, was expressed in E. coli and purified to a quality close to homogeneity.
The C-terminal fragment (Q1687-H2101) of an NuMA (Nuclear protein which is associated with the Mitotic Apparatus) expressed in E. coli, and the N-terminal end of which was labeled with histidine, was purified by nickel chelate chromatography and used as substrate in the Aurora2 kinase test.
To determine the kinase activity, the substrate NuMA is equilibrated by chromatography on a PD10 Pharmacia column, in a buffer (50 mM Tris-HCl, pH 7.5, 50 mM NaCl, 10 mM MgCl2) supplemented with 10% (v/v) of glycerol and 0.05% (w/v) of NP40.
The kinase activity of Aurora2 is measured by scintillation with nickel chelate (New England Nuclear, SMP107 model). Each well contains 100 μl of the following solution: 0.02 μM of Aurora2; 0.5 μM of NuMA substrate; 1 μM of ATP supplemented with 0.5 μCi of ATP-[^33P]. The solutions are incubated for 30 minutes at 37° C. The test buffer is then removed and the wells are rinsed twice with 300 μl of kinase buffer. The radioactivity is measured in each well using a Packard Model Top Count NXT machine.
The background noise is deduced by measuring radioactivity measured in duplicate in wells containing the radioactive ATP alone containing buffered kinase treated in the same manner as for the other samples.
The activity of the control is determined by measuring in duplicate the radioactivity in the complete test mixture (ATP, Aurora2 and substrate NuMA), in the absence of test compound.
The inhibition of the activity of Aurora2 with a compound of the invention is expressed as a percentage of inhibition of the control activity in the absence of test compound. Staurosporin is added to each plate as inhibition control.
The activity of the products was determined by measuring the inhibition of Aurora2 activity.

CDK2/cycline E = molecular target: T2, CDK2/cycline E (Homo sapiens, UniProt P24941); assay: CDK2/cyclineE Flashplate test in 96-well format; format: biochemical
T2 construct: made in house; host or cells: Sf21 insect cells (baculovirus coinfection)
Method: Purification of the CDK2/cyclineE-(His)6 Complex by IMAC (Immobilized Metal Affinity Chromatography):
Two recombinant baculoviruses bearing the human sequences coding, respectively, for CDK2 and cyclineE (the latter bearing a C-terminal hexahistidine tag) are used to coinfect Sf21 insect cells. Two to three days after the start of coinfection, the cells are harvested by centrifugation and then stored at −40° C. until the time of use. After thawing and mechanical lysis of the cells, the complex present in the lysis supernatant is purified by affinity chromatography on nickel (IMAC), and stored at −80° C.
CDK2/cyclineE Flashplate Test in 96-Well Format.
A format in streptavidin-coated 96-well plates is used to test the activity of the compounds on the kinase activity of CDK2/cycline E.
To perform this test, the biotinylated peptide substrate, a fragment of the protein pRb (biotinyl-[…]—OH) (SEQ ID NO: 1), is dissolved at a concentration of 1 mM in kinase buffer (HEPES/NaOH 50 mM, NaCl 1 mM, MgCl2 5 mM, pH 7.5) in order to constitute a stock solution stored at −20° C. in the form of 110 μL aliquots. On the day of the experiment, an aliquot of this solution is thawed and diluted in kinase buffer containing 1 mM of dithiothreitol, added to the buffer extemporaneously, in order to obtain a concentration of 14.3 μM. 70 μL of this solution are added to each well of the Flashplate in order to obtain a final substrate concentration of 10 μM during the enzymatic reaction performed in a final volume of the reaction medium of 100 μL (cf. below).
Intermediate dilutions of inhibitors (products of the invention) at various concentrations are prepared in DMSO from stock solutions at 10 mM in separate tubes. […]
When the incubation is complete, the plate is washed three times with 300 μL per well of PBS (phosphate-buffered saline, pH=7.4, without calcium or magnesium, reference 10010-015, Gibco BRL). The incorporation of ^33P to the peptide is quantified by scintillation counting with a Packard Topcount.NXT machine. […]

human Tie2 = molecular target: T3, human Tie2 (Homo sapiens, UniProt Q02763); assay: Test of phosphorylation of PLC with Tie2 (GST-Tie2); format: biochemical
T3 construct: amino acids of the intracellular domain 776-1124; made in house; host or cells: baculovirus expression (pFastBacGT vector)
T3 sequence (Q02763 776-1124): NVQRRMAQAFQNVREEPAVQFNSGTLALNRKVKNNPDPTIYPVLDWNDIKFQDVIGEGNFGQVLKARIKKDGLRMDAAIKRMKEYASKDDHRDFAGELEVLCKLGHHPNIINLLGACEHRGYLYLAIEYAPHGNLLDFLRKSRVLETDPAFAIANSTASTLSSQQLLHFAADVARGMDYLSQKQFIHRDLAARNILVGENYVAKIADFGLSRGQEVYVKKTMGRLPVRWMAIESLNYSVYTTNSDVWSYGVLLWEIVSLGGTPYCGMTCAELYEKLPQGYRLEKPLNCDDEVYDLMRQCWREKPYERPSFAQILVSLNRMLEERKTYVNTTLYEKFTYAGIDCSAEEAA
Method: The coding sequence of human Tie2 corresponding to the amino acids of the intracellular domain 776-1124 was generated by PCR using the cDNA isolated from a human placenta as a model. This sequence was introduced into a pFastBacGT baculovirus expression vector in the form of a GST fusion protein.
The inhibitory effect of the molecules is determined in a test of phosphorylation of PLC with Tie2 in the presence of GST-Tie2 purified to about 80% homogeneity. The substrate is composed of the SH2-SH3 fragments of PLC expressed in the form of a GST fusion protein.
The kinase activity of Tie2 is measured in a MOPS 20 mM pH 7.2 buffer, containing 10 mM MgCl2, 10 mM MnCl2, 1 mM DTT, 10 mM of glycerophosphate. In a 96-well FlashPlate plate maintained on ice, a reaction mixture is deposited, composed of 70 μL of kinase buffer containing 100 ng of enzyme GST-Tie2 per well. Next, 10 μL of the test molecule diluted in DMSO to a maximum concentration of 10% are added. For a given concentration, each measurement is performed four times. The reaction is initiated by adding 20 μL of solution containing 2 μg of GST-PLC, 2 μm of cold ATP and 1 μCi of ^33P [ATP]. […] The radioactivity is measured on a MicroBeta1450 Wallac.
The inhibition of the Tie2 activity is calculated and expressed as a percentage of inhibition relative to the control activity determined in the absence of compound.

Row | SMILES | IC50 (Aurora2) [nM] | IC50 (CDK2/cycline E) [nM] | melting point [°C] | IC50 (human Tie2) [nM]
1 | O=C(NOc1ccccc1)c1cc2c(/C=C/c3ccccc3)n[nH]c2s1 [Example 2] | < 50 | 522 | 142 | –
2 | O=C(NOc1ccccc1)c1cc2c(-c3cc4ccccc4[nH]3)n[nH]c2s1 [Example 1, 3-(1H-indol-2-yl)-1H-thieno[2,3-c]pyrazole-5-(N-phenoxycarboxamide)] | < 50 | < 100 | 171 | –
3 | O=C(Nc1n[nH]c2sc(C(=O)NOc3ccccc3)cc12)c1cccs1 [Example 3, 3-[(thiophene-2-carbonyl)amino]-1H-thieno[2,3-c]pyrazole-5-(N-phenoxycarboxamide)hydrochloride] | < 50 | < 500 | – | < 500
